In article PMC7023430, “4-Aminobenzoic Acid Derivatives: Converting Folate Precursor to Antimicrobial and Cytotoxic Agents” (Biomolecules, 2019):
In brackets after ≈: the same amount, converted by molar mass. Where two headings read alike, the source gives them in different places.

Legend:
[1] = tested on: Mycobacterium avium 330/88; test: Antimycobacterial micromethod in Šula's medium, M. avium; assay type: cell-based
Trichosporon asahii 1188 = test: Antifungal microdilution broth method, T. asahii; assay type: cell-based
Procedure: (§1) The antifungal properties were evaluated against five yeast strains, namely: Candida albicans ATCC 44859, Candida tropicalis 156, Candida krusei […], Candida glabrata 20/I, Trichosporon […] 1188 and three strains of filamentous fungi: Aspergillus fumigatus 231, Lichtheimia corymbifera 272, and Trichophyton interdigitale 445. A microdilution broth method was performed according to EUCAST II, III instructions with slight modifications. Briefly, tested compounds were dissolved in DMSO and diluted in a twofold manner with RPMI-1640 medium with L-glutamine, supplemented with 2% glucose (w/v) and buffered to pH 7.0 with 3 morpholinopropane-1-sulfonic acid (all components were purchased from Sigma-Aldrich, USA). […] Positive controls consisted of test microbe solely, while negative controls consisted of medium and DMSO. Internal quality control was included too. Visual inspection was used for MIC endpoints evaluation. The experiments were conducted in duplicates. For the results to be valid, the difference in MIC determined from two parallel measurements must not be greater than one step on the dilution scale. PABA and triazole antimycotic drug fluconazole were involved as the reference compounds.

[2] = tested on: Candida albicans ATCC 44859; test: Antifungal microdilution broth method, C. albicans; assay type: cell-based
Procedure: as §1

[3] = tested on: Pseudomonas aeruginosa ATCC 27853, CCM 3955; test: Antibacterial microdilution broth method, P. aeruginosa; assay type: cell-based; settings: Pseudomonas aeruginosa
[4] = tested on: Enterococcus faecalis ATCC 29212, CCM 4224; test: Antibacterial microdilution broth method, E. faecalis; assay type: cell-based; settings: Enterococcus faecalis
Candida glabrata 20/I = test: Antifungal microdilution broth method, C. glabrata; assay type: cell-based; settings: Nakaseomyces glabratus
Procedure: as §1

[5] = tested on: Trichophyton interdigitale 445; test: Antifungal microdilution broth method, T. interdigitale; assay type: cell-based
Procedure: as §1

[6] = tested on: Klebsiella pneumoniae D 11750/08; test: Antibacterial microdilution broth method, K. pneumoniae; settings: K. pneumoniae D 11750/08; for MIC KP 24 h: 24 h incubation; for MIC KP 48 h: 48 h incubation
[7] = tested on: four Gram-positive and four Gram-negative strains; test: Antibacterial activity; assay type: cell-based; settings: time not stated
[8] = tested on: Staphylococcus epidermidis H 6966/08; test: Antibacterial microdilution broth method, S. epidermidis; assay type: cell-based; settings: Staphylococcus epidermidis, H6966/08, S. epidermidis
eight fungal strains = test: Antifungal activity; assay type: cell-based; settings: statement over the fungal panel; time not stated
Procedure: as §1

[9] = tested on: M. kansasii 6509/96 (clinical isolate); test: Antimycobacterial micromethod in Šula's medium, M. kansasii 6509/96; assay type: cell-based; settings: Mycobacterium kansasii
Candida krusei E28 = test: Antifungal microdilution broth method, C. krusei; assay type: cell-based; settings: Pichia kudriavzevii
Procedure: as §1

[10] = tested on: Lichtheimia corymbifera 272; test: Antifungal microdilution broth method, L. corymbifera; assay type: cell-based
Procedure: as §1

[11] = tested on: Escherichia coli ATCC 25922, CCM 3954; test: Antibacterial microdilution broth method, E. coli; assay type: cell-based; settings: Escherichia coli
[12] = tested on: ESBL-positive Klebsiella pneumoniae J 14368/08
[13] = tested on: Staphylococcus aureus ATCC 29213, CCM 4223; test: Antibacterial microdilution broth method, S. aureus; assay type: cell-based
[14] = tested on: methicillin-resistant Staphylococcus aureus ATCC 43300, CCM 4750 (MRSA); test: Antibacterial microdilution broth method, MRSA; assay type: cell-based; settings: Staphylococcus aureus
[15] = tested on: Mycobacterium kansasii 235/80; test: Antimycobacterial micromethod in Šula's medium, M. kansasii 235/80; assay type: cell-based
[16] = tested on: Mycobacterium tuberculosis H37Rv (331/88); test: Antimycobacterial micromethod in Šula's medium, M. tuberculosis; assay type: cell-based
[17] = tested on: Aspergillus fumigatus 231; test: Antifungal microdilution broth method, A. fumigatus; assay type: cell-based
Procedure: as §1

Candida tropicalis 156 = test: Antifungal microdilution broth method, C. tropicalis; assay type: cell-based
Procedure: as §1

[18] = tested on: Mtb. 331/88 and three non-tuberculous mycobacterial strains; test: Antimycobacterial activity; assay type: cell-based; settings: statement over four mycobacterial strains; time not stated
[19] = 330/88, 336 h, 14 days incubation at 37 °C, read-out: MIC M. avium 330/88 14 d
[20] = 330/88, 504 h, 21 days incubation at 37 °C, read-out: MIC M. avium 330/88 21 d
[21] = ATCC44859, 24 h, read-out: MIC CA 24 h
[22] = ATCC44859, 48 h, read-out: MIC CA 48 h
[23] = P. aeruginosa, 24 h incubation, read-out: MIC PA 24 h
[24] = P. aeruginosa, 48 h incubation, read-out: MIC PA 48 h
[25] = 24 h incubation, read-out: MIC EF 24 h
[26] = 48 h incubation, read-out: MIC EF 48 h
[27] = 24 h incubation, read-out: MIC SE 24 h
[28] = 48 h incubation, read-out: MIC SE 48 h
[29] = 168 h, 7 days incubation at 37 °C, read-out: MIC M. kansasii 6509/96 7 d
[30] = 336 h, 14 days incubation at 37 °C, read-out: MIC M. kansasii 6509/96 14 d
[31] = 504 h, 21 days incubation at 37 °C, read-out: MIC M. kansasii 6509/96 21 d
[32] = 24 h incubation, read-out: MIC EC 24 h
[33] = 48 h incubation, read-out: MIC EC 48 h
[34] = 24 h incubation, read-out: MIC SA 24 h
[35] = 48 h incubation, read-out: MIC SA 48 h
[36] = 24 h incubation, read-out: MIC MRSA 24 h
[37] = 48 h incubation, read-out: MIC MRSA 48 h
[38] = 235/80, 168 h, 7 days incubation at 37 °C, read-out: MIC M. kansasii 235/80 7 d
[39] = 235/80, 336 h, 14 days incubation at 37 °C, read-out: MIC M. kansasii 235/80 14 d
[40] = 235/80, 504 h, 21 days incubation at 37 °C, read-out: MIC M. kansasii 235/80 21 d
[41] = 336 h, 14 days incubation at 37 °C, read-out: MIC Mtb. 331/88 14 d
[42] = 504 h, 21 days incubation at 37 °C, read-out: MIC Mtb. 331/88 21 d

In the case of `O=C(O)c1ccc(N=Cc2ccccc2O)cc1` [1a, 4-[(2-Hydroxybenzylidene)amino]benzoic acid], the MIC [1, 19] is reported as > 1000 µM, the MIC [1, 20] is reported as > 1000 µM and the MIC (Trichosporon asahii 1188; 24 h, read-out: MIC TA 24 h) is reported as > 500 µM. For the same compound, the MIC (Trichosporon asahii 1188; 48 h, read-out: MIC TA 48 h) was > 500 µM, the MIC [2, 21] was > 500 µM and the MIC [2, 22] was > 500 µM. For the same compound, the MIC [3, 23] was > 500 µM, the MIC [3, 24] was > 500 µM and the MIC [4, 25] was > 500 µM. The MIC [4, 26] was > 500 µM, the MIC (Candida glabrata 20/I; 24 h, read-out: MIC CG 24 h) was > 500 µM and the MIC (Candida glabrata 20/I; 48 h, read-out: MIC CG 48 h) was > 500 µM. The MIC ([5]; 72 h, read-out: MIC TI 72 h) was > 500 µM, the MIC ([5]; 120 h, read-out: MIC TI 120 h) was > 500 µM and the “MIC KP 24 h” value [6] was >500 µM. For the same compound, the “MIC KP 48 h” value [6] was >500 µM, the “MIC, antibacterial activity” value ([7]; statement over the bacterial panel) was “avoided any antibacterial action” and the MIC [8, 27] was > 500 µM. The MIC [8, 28] was > 500 µM, the “MIC, antifungal activity” value (eight fungal strains) was “no antimycotic potency” and the MIC [9, 29] was 1000 µM (≈ 241 µg/mL). The MIC [9, 30] was 1000 µM (≈ 241 µg/mL), the MIC [9, 31] was 1000 µM (≈ 241 µg/mL) and the MIC (Candida krusei E28; 24 h, read-out: MIC CK 24 h) was > 500 µM. The MIC (Candida krusei E28; 48 h, read-out: MIC CK 48 h) was > 500 µM, the MIC ([10]; 24 h, read-out: MIC LC 24 h) was > 500 µM and the MIC ([10]; 48 h, read-out: MIC LC 48 h) was > 500 µM. The MIC [11, 32] was > 500 µM, the MIC [11, 33] was > 500 µM and the “MIC KP-E 24 h” value [12] was >500 µM. The “MIC KP-E 48 h” value [12] was >500 µM, the MIC [13, 34] was > 500 µM and the MIC [13, 35] was > 500 µM. The MIC [14, 36] was > 500 µM, the MIC [14, 37] was > 500 µM and the MIC [15, 38] was 1000 µM (≈ 241 µg/mL). The MIC [15, 39] was > 1000 µM, the MIC [15, 40] was > 1000 µM and the MIC [16, 41] was > 1000 µM. For the same compound, the MIC [16, 42] was > 1000 µM, the MIC ([17]; 24 h, read-out: MIC AF 24 h) was > 500 µM and the MIC ([17]; 48 h, read-out: MIC AF 48 h) was > 500 µM. For the same compound, the MIC (Candida tropicalis 156; 24 h, read-out: MIC CT 24 h) was > 500 µM, the MIC (Candida tropicalis 156; 48 h, read-out: MIC CT 48 h) was > 500 µM and the “MIC, antimycobacterial activity” value [18] was “only negligible antimycobacterial activity”.

With `O=C(O)c1ccc(N=Cc2cc(O)ccc2O)cc1` [1i, 4-[(2,5-Dihydroxybenzylidene)amino]benzoic acid] the MIC [1, 19] was 1000 µM (≈ 257 µg/mL), the MIC [1, 20] was > 1000 µM and the MIC (Trichosporon asahii 1188; 24 h, read-out: MIC TA 24 h) was > 500 µM. For the same compound, the MIC (Trichosporon asahii 1188; 48 h, read-out: MIC TA 48 h) was > 500 µM, the MIC [2, 21] was 500 µM (≈ 129 µg/mL) and the MIC [2, 22] was 500 µM (≈ 129 µg/mL). The MIC [3, 23] was 500 µM (≈ 129 µg/mL), the MIC [3, 24] was 500 µM (≈ 129 µg/mL) and the MIC ([3]; time not stated, read-out: MIC, P. aeruginosa) was 500 µM (≈ 129 µg/mL). The MIC [4, 25] was 500 µM (≈ 129 µg/mL), the MIC [4, 26] was 500 µM (≈ 129 µg/mL) and the MIC (Candida glabrata 20/I; 24 h, read-out: MIC CG 24 h) was 250 µM (≈ 64.3 µg/mL). For the same compound, the MIC (Candida glabrata 20/I; 48 h, read-out: MIC CG 48 h) was 250 µM (≈ 64.3 µg/mL), the MIC ([5]; 72 h, read-out: MIC TI 72 h) was > 500 µM and the MIC ([5]; 120 h, read-out: MIC TI 120 h) was > 500 µM. For the same compound, the “MIC KP 24 h” value [6] was 500 µM (≈ 129 µg/mL), the “MIC KP 48 h” value [6] was 500 µM (≈ 129 µg/mL) and the MIC ([7]; Staphylococcus aureus, MRSA, read-out: MIC, multiple Gram-positive strains including MRSA) was ≥ 250 µM. The MIC [8, 27] was 250 µM (≈ 64.3 µg/mL), the MIC [8, 28] was 250 µM (≈ 64.3 µg/mL) and the MIC (eight fungal strains) was ≥ 250 µM. For the same compound, the MIC [9, 29] was 500 µM (≈ 129 µg/mL), the MIC [9, 30] was 1000 µM (≈ 257 µg/mL) and the MIC [9, 31] was 1000 µM (≈ 257 µg/mL). For the same compound, the MIC (Candida krusei E28; 24 h, read-out: MIC CK 24 h) was > 500 µM, the MIC (Candida krusei E28; 48 h, read-out: MIC CK 48 h) was > 500 µM and the MIC ([10]; 24 h, read-out: MIC LC 24 h) was > 500 µM. For the same compound, the MIC ([10]; 48 h, read-out: MIC LC 48 h) was > 500 µM, the MIC [11, 32] was > 500 µM and the MIC [11, 33] was > 500 µM. For the same compound, the “MIC KP-E 24 h” value [12] was 500 µM (≈ 129 µg/mL), the “MIC KP-E 48 h” value [12] was 500 µM (≈ 129 µg/mL) and the MIC [13, 34] was 500 µM (≈ 129 µg/mL). For the same compound, the MIC [13, 35] was 500 µM (≈ 129 µg/mL), the MIC [14, 36] was 250 µM (≈ 64.3 µg/mL) and the MIC [14, 37] was 250 µM (≈ 64.3 µg/mL). It also gave an MIC [15, 38] of 500 µM (≈ 129 µg/mL), an MIC [15, 39] of 500 µM (≈ 129 µg/mL) and an MIC [15, 40] of 1000 µM (≈ 257 µg/mL). For the same compound, the MIC [16, 41] was 500 µM (≈ 129 µg/mL), the MIC [16, 42] was 1000 µM (≈ 257 µg/mL) and the MIC ([17]; 24 h, read-out: MIC AF 24 h) was > 500 µM. For the same compound, the MIC ([17]; 48 h, read-out: MIC AF 48 h) was > 500 µM, the MIC (Candida tropicalis 156; 24 h, read-out: MIC CT 24 h) was > 500 µM and the MIC (Candida tropicalis 156; 48 h, read-out: MIC CT 48 h) was > 500 µM.
